# According to US7273867B2, “Phenyl derivatives” (Merck Patent GmbH, priority 2001, dated 2007):
# Tests used:
# [1] = target: factor Xa (Homo sapiens, UniProt P00742); test: Inhibition of factor Xa; format: biochemical
# Excerpt: The inhibition of factor Xa by the compounds according to the invention and the measurement of the anticoagulant and antithrombotic activity can be determined by conventional in-vitro or in-vivo methods. A suitable method is described, for example, by J. Hauptmann et al. in Thrombosis and Haemostasis 1990, 63, 220-223.
# The inhibition of factor Xa can be measured, for example, by the method of T. Hara et al. in Thromb. Haemostas. 1994, 71, 314-319.
# [2] = target: T1, factor VIIa (Homo sapiens, UniProt P08709); test: Inhibition of factor VIIa; format: biochemical
# T1 sequence (P08709 213-466 limits assumed): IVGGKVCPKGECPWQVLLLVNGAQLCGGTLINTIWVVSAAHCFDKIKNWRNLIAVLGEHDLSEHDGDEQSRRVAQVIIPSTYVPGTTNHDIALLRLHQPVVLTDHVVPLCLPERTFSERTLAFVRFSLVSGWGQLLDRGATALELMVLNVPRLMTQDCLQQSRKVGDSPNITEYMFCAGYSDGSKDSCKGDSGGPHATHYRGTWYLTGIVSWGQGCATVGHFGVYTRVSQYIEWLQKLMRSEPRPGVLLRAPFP
# T1 sequence (P08709 61-212 limits assumed): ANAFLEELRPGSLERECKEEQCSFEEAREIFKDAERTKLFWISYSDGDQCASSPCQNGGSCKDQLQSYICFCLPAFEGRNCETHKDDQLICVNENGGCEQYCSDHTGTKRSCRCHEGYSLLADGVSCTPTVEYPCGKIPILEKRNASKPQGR
# Excerpt: Coagulation factor VIIa initiates the extrinsic part of the coagulation cascade after binding to tissue factor and contributes to the activation of factor X to give factor Xa. Inhibition of factor VIIa thus prevents the formation of factor Xa and thus subsequent thrombin formation. The inhibition of factor VIIa by the compounds according to the invention and the measurement of the anticoagulant and antithrombotic activity can be determined by conventional in-vitro or in-vivo methods. A conventional method for the measurement of the inhibition of factor VIIa is described, for example, by H. F. Ronning et al. in Thrombosis Research 1996, 84, 73-81.
# Chain of factor Xa (P00742 235-488 limits assumed): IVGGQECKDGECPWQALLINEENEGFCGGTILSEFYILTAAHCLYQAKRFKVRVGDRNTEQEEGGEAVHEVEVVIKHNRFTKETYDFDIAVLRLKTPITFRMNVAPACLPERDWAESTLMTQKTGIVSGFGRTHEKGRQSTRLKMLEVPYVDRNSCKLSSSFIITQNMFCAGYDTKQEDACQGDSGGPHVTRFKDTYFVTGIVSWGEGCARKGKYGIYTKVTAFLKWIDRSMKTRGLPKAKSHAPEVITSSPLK
# Chain of factor Xa (P00742 41-179 limits assumed): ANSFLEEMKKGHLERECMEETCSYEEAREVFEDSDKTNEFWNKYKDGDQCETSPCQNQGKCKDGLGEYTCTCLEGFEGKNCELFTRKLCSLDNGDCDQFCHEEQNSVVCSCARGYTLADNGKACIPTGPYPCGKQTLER
IC50 [1] [nM],IC50 [2] [nM],Compound
90,60,N=C(N)c1cccc(OC(C(=O)Nc2ccc(N3CCOCC3)cc2)c2ccccc2)c1 (stereo not shown) [2-(3-amidinophenoxy)-N-(4-morpholin-4-ylphenyl)-2-phenylacetamide]
300,490,CCCC(Oc1cccc(C(=N)N)c1)C(=O)Nc1ccc(N2CCOCC2)cc1 (stereo not shown) [2-(3-amidinophenoxy)-N-(4-morpholin-4-ylphenyl)valeramide]
70,33,CCCC(Oc1cccc(C(=N)N)c1)C(=O)Nc1ccc(N2CCCCC2=O)cc1 (stereo not shown) [2-(3-amidinophenoxy)-N-[4-(2-oxopiperidin-1-yl)phenyl]valeramide]
65,39,N=C(N)c1cccc(OC(C(=O)Nc2ccc(N3CCCC3=O)cc2)c2ccccc2)c1 (stereo not shown) [2-(3-amidinophenoxy)-N-[4-(2-oxopyrrolidin-1-yl)phenyl]-2-phenylacetamide]
130,83,CCCC(Oc1cccc(C(=N)N)c1)C(=O)Nc1ccc(N2CCCC2=O)cc1 (stereo not shown) [2-(3-amidinophenoxy)-N-[4-(2-oxopyrrolidin-1-yl)phenyl]valeramide]
160,21,CC(C)CC(Nc1cccc(C(=N)N)c1)C(=O)Nc1ccc(N(C)C)cc1 (stereo not shown) [2-(3-amidinophenylamino)-N-(4-dimethylaminophenyl)-4-methylvaleramide]
34,22,N=C(N)c1cccc(NC(C(=O)Nc2ccc(N3CCOCC3)cc2)c2ccccc2)c1 (stereo not shown) [2-(3-amidinophenylamino)-N-(4-morpholin-4-ylphenyl)-2-phenylacetamide]
32,14,"N=C(N)c1cccc(OC(C(=O)Nc2ccc(N3CCCCC3=O)cc2)c2ccccc2)c1 (stereo not shown) [EMD 388547, 2-(3-amidinophenoxy)-N-[4-(2-oxopiperidin-1-yl)phenyl]-2-phenylacetamide]"
